The values that follow come from patent US7629334B1, “Mesoprogrestins (progesterone receptor modulations) as a component of compositions for hormone replacement therapy (HRT)” (Bayer Schering Pharma Aktiengesellschaft, priority 1999, dated 2009).

Assay [1] concerns pregnant rats. The experiment in a line: Abortifacient activity in pregnant rats. Type of assay: in vivo, rat. The following applies: treatment days 5-7 of pregnancy, autopsy day 9; * SAS, probit procedure. From the text:
(§1) The guinea pig is considered as relevant model of human gestation and parturition (Elger W, Fähnrich M, Beier S, Quing S S, Chwalisz K (1987). Endometrial and myometrial effects of progesterone antagonists in pregnant guinea pigs. Am J Obstet Gynecol 157: 1065-1074; Elger W, Neef G, Beier S, Fähnrich M, Gründel M, Heermann J, Malmendier A, Laurent D, Puri C P, Singh M M, Hasan S H, Becker H (1992). Evaluation of antifertility activities of antigestagens in animal model. In: Puri C P and Van Look P F A (eds), Current Concepts in Fertility Regulation and Reproduction. Wiley Eastern Limited, New Delhi, pp. 303-328; Elger W, Faehnrich M, Beier S, Qing S S, Chwalisz K (1986). Mechanism of action of progesterone antagonists in pregnant guinea pigs. Contraception 6: 47-62; Elger W, Chwalisz K, Faehnrich M, Hasan S H, Laurent D, Beier S, Ottow E, Neef G, Garfield R E (1990). Studies on labor-conditioning and labor-inducing effects of antiprogesterones in animal model. In: Garfield R E (eds), Norwell, pp. 153-175.) The mechanism of abortion of antiprogestins in this species is the initiation of labor and finally the expulsion of the conceptus. Abortifacient effects in the rat during very early pregnancy reflect inhibitory effects on nidation rather than initiation of uterine contractions. Studies in the rat model lead to “overestimation” of the potential of antiprogestins to terminate pregnancy in humans. Conversely, in the guinea pig model, irrespective of the antiprogestin doses, there were high rates of ongoing pregnancies similar to the situation in humans (Elger et al., Current Concepts in Fertility Regulation and Reproduction cited above). Furthermore, in both humans and guinea pigs, there is a strong synergism between antiprogestins and prostaglandins with respect the induction of labor (see the articles cited above and Elger W, Beier S (1983). Prostaglandine und Antigestagene für den Schwangerschaftsabbruch (Prostaglandins and antigestagens for pregnancy termination). German Patent DE 3337450 12; Van Look P, Bygdeman M (1989). Antiprogestational steroids: a new dimension in human fertility regulation. Oxford reviews of reproductive medicine 11: 2-60).

Assay [2] concerns pregnant guinea pigs. The experiment in a line: Abortifacient (labor inducing) activity in pregnant guinea pigs. Type of assay: in vivo, guinea pig. The following applies: for abortifacient activity ED50, guinea pig: treatment day 43-44 of pregnancy, autopsy day 50; for maximal abortion rate: up to 100 mg/kg/day. How it is done:
In the guinea pig model which allows a good prediction of the effects in humans with respect to the abortifacient activity (Elger W, Beier S., Chwalisz K, Fähnrich M, Hasan S H, Henderson D, Neef G, Rohde R (1986): Studies on the mechanism of action of progesterone antagonists. J Steroid Biochem 25: 835-845) the mesoprogestins J 867, J 912, J 956, J 1042 lead up to 100 mg/kg/day to a maximal abortion rate of 20%.
as §1
Pregnant guinea pigs were treated on days 43 and 44 of pregnancy and observed until day 50 of gestation. For the effects of various treatments see table 1 and FIG. 2. It is typical for this model that expulsions occur with a delay of several days after treatment. It can be seen that Mesoprogestins have a much reduced abortifacient activity compared to RU486. […] The differences with respect to abortifacient activity seem qualitative ones. It is not possible to overcome the low abortifacient activity of a Mesoprogestin by the use of a higher dose.

Assay [3] addresses T1, progesterone receptor (PR) (Oryctolagus cuniculus, UniProt P06186).
T1 construct: from tissue; host or cells: endometrium of estradiol-primed juvenile rabbits, in vivo
T1 sequence (P06186 1-930): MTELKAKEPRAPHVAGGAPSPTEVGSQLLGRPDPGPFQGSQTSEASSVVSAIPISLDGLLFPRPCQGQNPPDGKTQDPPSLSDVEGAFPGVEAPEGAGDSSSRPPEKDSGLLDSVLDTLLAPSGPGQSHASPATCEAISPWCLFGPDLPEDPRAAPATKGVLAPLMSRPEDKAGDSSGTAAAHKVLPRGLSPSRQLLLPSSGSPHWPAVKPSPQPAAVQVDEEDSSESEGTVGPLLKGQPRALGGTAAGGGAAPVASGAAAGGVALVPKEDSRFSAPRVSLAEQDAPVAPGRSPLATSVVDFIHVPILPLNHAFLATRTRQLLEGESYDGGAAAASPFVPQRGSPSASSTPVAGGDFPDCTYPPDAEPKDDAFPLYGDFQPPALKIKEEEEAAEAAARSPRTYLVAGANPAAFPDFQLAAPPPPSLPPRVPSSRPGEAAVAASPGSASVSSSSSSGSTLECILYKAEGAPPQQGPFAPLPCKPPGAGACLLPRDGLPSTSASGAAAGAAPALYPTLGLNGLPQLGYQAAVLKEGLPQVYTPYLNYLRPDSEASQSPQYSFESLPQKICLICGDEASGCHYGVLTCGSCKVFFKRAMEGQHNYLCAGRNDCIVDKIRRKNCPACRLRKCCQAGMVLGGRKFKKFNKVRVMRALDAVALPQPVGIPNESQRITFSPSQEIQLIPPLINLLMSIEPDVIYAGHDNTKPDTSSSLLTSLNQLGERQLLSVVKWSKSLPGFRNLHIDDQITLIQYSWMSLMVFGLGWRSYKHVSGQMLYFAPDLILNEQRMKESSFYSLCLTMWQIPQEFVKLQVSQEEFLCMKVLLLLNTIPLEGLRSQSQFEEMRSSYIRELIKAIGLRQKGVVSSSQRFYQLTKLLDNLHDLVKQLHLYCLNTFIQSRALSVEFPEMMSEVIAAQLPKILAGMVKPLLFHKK
Put plainly: McPhail test, PR agonistic properties in estradiol-primed juvenile rabbits. Type of assay: in vivo, rabbit. The following applies: for maximum effect, McPhail score: 4 days s.c. treatment, absence of progesterone, 0 = no transformation, 4 = complete transformation. How it is done:
In the classical bioassay, the McPhail test, assessing progestagenic and antiprogestagenic effects in rabbits (Selye H., Textbook of Endocrinology, 1947, pp. 345-346), progesterone produces a maximum McPhail score of 4 (by definition). […] The PR antagonistic and agonistic properties of mesoprogestins were assessed in estrogen-primed rabbits in the McPhail test according to Selye (Textbook of Endocrinology, 1947, pp. 345-346).

Setting [4] is: dose range 0.003-100 mg/rabbit s.c.

A value given as a limit tells only on which side of the number the result lay.

For `COC[C@]1(OC)CC[C@H]2[C@@H]3CCC4=CC(=O)CCC4=C3[C@@H](c3ccc(/C=N/O)cc3)C[C@@]21C` [Compound J867, 4-[17βMethoxy-17α-(methoxymethyl)-3-oxoestra-4,9-dien-11β-yl]benzaldehyd-(1E)-oxim], in assay [1], the “abortifacient activity ED50, Rat” value is 0.65* mg/animal/day, s.c. For the same molecule, in assay [2], the “abortifacient activity ED50, guinea pig” value is >100 mg/animal/day, s.c and the maximal abortion rate turned out to be 20%. Moreover, the “progestagenic effect compared with maximum effect of progesterone” value in assay [3] (setting [4]) was “Neither mesoprogestin tested (J 1042, J867, J956) reached the maximum effect of progesterone”.

For `COCC1(O)CCC2C3CCC4=CC(=O)CCC4=C3C(c3ccc(C=NO)cc3)CC21C` (stereo not drawn) [Compound J912, 4-[17β-Hydroxy-17α-(methoxymethyl)-3-oxoestra-4,9-dien-11β-yl]benzaldehyd-(1E)-oxim], the “abortifacient activity ED50, Rat” value in assay [1] was 0.36 mg/animal/day, s.c. Further, in assay [2], the “abortifacient activity ED50, guinea pig” value was >100 mg/animal/day, s.c and the maximal abortion rate is recorded as 20%.

`CCNC(=O)O/N=C/c1ccc([C@H]2C[C@@]3(C)[C@@H](CC[C@]3(COC)OC)[C@@H]3CCC4=CC(=O)CCC4=C32)cc1` [Compound J956, 4-[17β-Methoxy-17α-(methoxymethyl)-3-oxoestra-4,9-dien-11β-yl]benzaldehyd-(1E)-[O-(ethylamino)carbonyl]oxim]: the “abortifacient activity ED50, Rat” value in assay [1] is 0.64* mg/animal/day, s.c. In assay [2], the “abortifacient activity ED50, guinea pig” value is reported as 20 mg/animal/day, s.c and the maximal abortion rate was 20%. Moreover, the “maximum effect, McPhail score” value in assay [3] is reported as 1.5. In assay [3] (setting [4]), the “progestagenic effect compared with maximum effect of progesterone” value is “Neither mesoprogestin tested (J 1042, J867, J956) reached the maximum effect of progesterone” and the “shape of dose response” value is on record as “biphasic response”.

With `CCSC(=O)O/N=C/c1ccc([C@H]2C[C@@]3(C)[C@@H](CC[C@]3(COC)OC)[C@@H]3CCC4=CC(=O)CCC4=C32)cc1` [Compound J1042, 4-[17β-Methoxy-17α-(methoxymethyl)-3-oxoestra-4,9-dien-11β-yl]benzaldehyd-(1E)-[O-(ethylthio)carbonyl]oxim], the “abortifacient activity ED50, Rat” value in assay [1] is listed as >10 mg/animal/day, s.c. Further, in assay [2], the “abortifacient activity ED50, guinea pig” value is given as >>100 mg/animal/day, s.c and the maximal abortion rate is recorded as 20%. Also, in assay [3] (setting [4]), the “progestagenic effect compared with maximum effect of progesterone” value is reported as “Neither mesoprogestin tested (J 1042, J867, J956) reached the maximum effect of progesterone”.

For the molecule `CN(C)c1ccc([C@H]2C[C@]3(C)[C@@H](CC[C@]3(O)CCCO)[C@@H]3CCC4=CC(=O)CCC4=C32)cc1` [Onapristone, onapristone, reference compound], the “abortifacient activity ED50, Rat” value in assay [1] is 1.71* mg/animal/day, s.c. Moreover, the “abortifacient activity ED50, guinea pig” value in assay [2] is “ca 3 mg/animal/day, s.c”.

Turning to `CC(=O)[C@H]1CC[C@H]2[C@@H]3CCC4=CC(=O)CC[C@]4(C)[C@H]3CC[C@]12C` [Progesterone, progesterone], the “dose inducing endometrial transformation” value in assay [3] (4 days s.c.) is recorded as at least 0.1 mg. In addition, the “maximum effect, McPhail score” value in assay [3] is recorded as about 4.

For `CC#C[C@]1(O)CC[C@H]2[C@@H]3CCC4=CC(=O)CCC4=C3[C@@H](c3ccc(N(C)C)cc3)C[C@@]21C` [RU 486, reference compound], in assay [1], the “abortifacient activity ED50, Rat” value is 0.98* mg/animal/day, s.c. The “abortifacient activity ED50, guinea pig” value in assay [2] is listed as 3.8 mg/animal/day, s.c.
